Patent US20260232640A1, “COMPOSITIONS AND METHODS FOR TREATING SPINAL MUSCULAR ATROPHY” (NMD Pharma A/S, priority 2023, published 2026)
“Also recorded” adds a separate entry of the source.

Experiments:
[1] = system: SMA (delta-7 mouse) animals; assay: RotaRod test (latency to fall) in SMA model; type: in vivo; conditions: 20 mg/kg IP; for latency to fall / running test, result in words: before vs 90 min after dosing
Experimental: (§1) The employed model of SMA is a genetic knock-in model of severe SMA (“delta-7 mouse”). This model was developed in The Ohio State University laboratories (Foust et al, 2010). In this study the mice were administered at post-natal day 2 via intracerebroventricular injection 40 μg of morpholino ASOs directed against ISS-N1 to increase full-length SMN protein production from SMN2 to allow the animal to live to about 90 days. Five animals aged 67 days were investigated in a study where 20 mg/kg CIC-1 inhibitor ((S)-2-(4-bromo-2-ethynylphenoxy)propionic acid) in phosphate buffered saline was administered intraperitoneally and subjected to a rotarod test battery 90 minutes after injection (single intervention) and CMAP recording 120 min after injection.
RotaRod (Harward apparatus, MA, USA) were used to explore the physical capabilities of the SMA mouse model in vivo and examined coordination ability of legs and endurance on a horizontal accelerating, rotating rod. The RotaRod test was designed to start at a low revolution rate of 5 rpm of the horizontal roll and accelerate gradually to 45 rpm over 300 seconds (maximal test time). Animals were acclimatized and trained for several weeks prior to intervention, to avoid training bias. […] This was performed prior to dosing, and then 90 min after IP dosing of 20 mg/kg of the CIC-1inhibitor.

[2] = system: SMA (delta-7 mouse) animals; assay: Compound Muscle Action Potentials (CMAP) decrement, repeated sciatic nerve stimulation (EMG); type: in vivo; conditions: for CMAP decrement, result in words: 10 to 50 Hz, before vs after treatment, significant from 20 to 50 Hz only; for CMAP Decrement % (10th/1st Stimulation): 20 mg/kg IP, 120 min after dosing
Experimental: as §1
Compound Muscle Action Potentials (CMAP) measurements were performed as previously described (Arnold et al, 2015). Briefly, the right sciatic nerve was stimulated with a pair of insulated 28-gauge monopolar needles (Teca, Oxford Instruments Medical, NY) placed in proximity to the sciatic nerve in the proximal hind limb. Recording electrodes consisted of a pair of fine ring wire electrodes (Alpine Biomed, Skovlunde, Denmark). The active recording electrode was placed distal to the knee joint over the proximal portion of the triceps surae muscle and the reference electrode over the metatarsal region of the foot. A disposable strip electrode (Carefusion, Middleton, WI) was placed on the contralateral hind limb to serve as the ground electrode. Data collection and analysis was performed using Cadwell Sierra Summit EMG unit (Cadwell laboratories, Kennewick, Washington, USA). Animals were stimulated in trains of 10 pulses of 50 μs at supramaximal voltage at 10, 20, 30, 40 and 50 Hz, with 10 seconds between stimulation trains.
This was performed prior to dosing, and then 120 min after IP dosing of 20 mg/kg of the CIC-1inhibitor. The relative amplitude from the 10th to the 1st stimulation is denoted as decrement, and a larger negative number designates a larger deficit/decrement, indicating a larger transmission failure from nerve to muscle.

[3] = system: SMA (delta-7 mouse) animals; assay: Tolerability after intraperitoneal injection in SMA model; type: in vivo; conditions: 20 mg/kg intraperitoneally, five animals
Experimental: as §1

[4] = Tablet dissolution (USP2 paddles, HPLC); type: physicochemical; conditions: immediate release tablets; USP2 paddles 75 RPM, 900 ml dissolution media pH 6.8, 37° C.; after a maximum of 60 minutes
Experimental: Tablet dissolution was determined as follows.
Dissolution Media pH 6.8 was prepared by dissolving 27.3 g Na2HPO4·2H2O and 4.9 g Citric Acid in 1 L Milli-Q water. The pH was measured and adjusted if necessary to pH 6.8.
900 mL of dissolution media pH 6.8 was accurately transferred into each dissolution vessel. The apparatus was assembled, and the dissolution media was heated to 37° C.±0.5° C. The T=0 point was extracted from each vessel prior to dropping the tablets into the dissolution vessels. One tablet was gently dropped into each dissolution vessel, and rotation of the paddle was immediately started. Samples were taken that the sample extraction timepoints and analysed using the HPLC method.

[5] = Phase I clinical trial Part A, single dose pharmacokinetics in plasma; type: in vivo, human
Experimental: • Collect blood (3 mL recommended) onto wet ice (K2EDTA tubes) • Immediately cool blood on crushed wet ice for maximum of 30 minutes • Harvest plasma as quickly as possible using refrigerated centrifuge by centrifuging at 2000 g for 10 minutes at 4° C. • Keep plasma on wet ice and immediately stabilise with 1:1 (v/v) addition of Water: Orthophosphoric Acid (100:2 v/v) prepared using ≥85% orthophosphoric acid and deionised water (e.g. 750 μL plasma+750 μL stabiliser). • Mix sample thoroughly. • Keep the stabilised plasma on wet ice during subsequent steps. • Divide the stabilised plasma into 5×250 μL aliquots in plastic cryotubes. • Store aliquots at nominal −70° C./−80° C. promptly.
• 1. Thaw frozen calibration standards, QC samples, blank matrix and study samples on wet ice. • 2. Vortex-mix all samples thoroughly. • 3. On wet ice aliquot 150 μL of calibration standards, QC samples, study samples, and blanks into a 2 mL 96-well plate. For the reagent blank add the same volume of Water. • 4. On wet ice add 25 μL of Methanol:Water (50:50) to wells containing blanks and the same volume of ISTD intermediate solution to all other wells. • 5. On wet ice add 125 μL of Water to each well. […] Condition SPE plate with 250 μL of Water. • 9. Load 250 μL of the sample onto the SPE plate (aspirate from the rim of the cone to avoid any debris collected at the bottom of the well). […]

healthy volunteers = assay: Phase I clinical trial Part A, tolerability/safety (adverse events); type: in vivo, human

C#Cc1cc(Br)ccc1O[C@@H](C)C(=O)O [CIC-1 inhibitor, (S)-2-(4-bromo-2-ethynylphenoxy)propionic acid]
Time for remaining on rotor rod ([1]; 90 min after dosing, delta-7 mice aged 67 days, pre-treatment 62.2 ± 40.2): 81 ± 63.2 s
latency to fall / running test, result in words [1]: All animals were able to stay on the rotating rod longer after treatment; also recorded: performed better in the running test
latency to fall / running test, result in words ([1]; listed as CIC-1inhibitor): All animals were able to stay on the rotating rod longer after treatment
CMAP decrement, result in words [2]: only minimal decrement visible; also recorded: less pronounced in all animals at all frequencies; also recorded: reduced decrement in EMG (RNS) at all tested frequencies
CMAP decrement, result in words ([2]; listed as CIC-1inhibitor): less pronounced in all animals at all frequencies
improvement in decrement ([2]; at 50 Hz, mouse model of SMA): 75%
CMAP Decrement % (10th/1st Stimulation) ([2]; stimulation frequency 10 Hz): −7.0 ± 5.4%
CMAP Decrement % (10th/1st Stimulation) ([2]; stimulation frequency 20 Hz): −8.1 ± 5.1%
CMAP Decrement % (10th/1st Stimulation) ([2]; stimulation frequency 30 Hz): −8.4 ± 6.0%
CMAP Decrement % (10th/1st Stimulation) ([2]; stimulation frequency 40 Hz): −8.9 ± 4.9%
CMAP Decrement % (10th/1st Stimulation) ([2]; stimulation frequency 50 Hz): −7.7 ± 6.5%
adverse reactions to the compound injection [3]: did not exhibit any adverse reactions to the compound injection, nor any signs of muscle stiffness

C[C@H](Oc1ccc(Br)cc1-c1ccon1)C(=O)O [NMD670, (2S)-2-[4-bromo-2-(1,2-oxazol-3-yl)phenoxy]propanoic acid]
NMD670 released from the tablets [4]: Not less than 80%
half-life ([5]; plasma, oral, human, stated in rationale for washout period): ~4 h
T1/2 (mean ± SD, hr) ([5]; single oral dose 100 mg, healthy male subjects): 5.07 ± 0.63 h
adverse event that stopped dose escalation (healthy volunteers; 1600 mg, dose level 7, spontaneously and fully resolved within hours): myotonia of moderate intensity observed in one subject
subject discontinuations (healthy volunteers; Part A): no subject discontinuations
total number of AEs reported (healthy volunteers; Part A, 35 healthy subjects, single doses): 70
intensity of AEs (healthy volunteers; except one AE of myotonia (1600 mg) and tooth extraction (unrelated, 50 mg), moderate): Most AEs were mild
dose-related AE (healthy volunteers; highest dose levels tested (1200 mg and 1600 mg), single dose): transient myotonia
number of AEs at least possibly drug related (healthy volunteers; of 70 AEs, Part A): 47
share of AEs at least possibly drug related (healthy volunteers; of 70 AEs, Part A): 67%
serious or severe adverse effects (healthy volunteers; single doses 50 to 1600 mg, 35 healthy subjects): No serious or severe adverse effects were reported
